In patent US20250186434A1, “SOS1 PROTEIN DEGRADERS, PHARMACEUTICAL COMPOSITIONS THEREOF, AND THEIR THERAPEUTIC APPLICATIONS” (BioTheryX, Inc., priority 2022, published 2025) one finds DC50 and Dmax data, which are given here for six compounds.

A value given as a limit tells only on which side of the number the result lay.

This test concerns the target T1, HiBiT-tagged endogenous SOS1 protein (Homo sapiens, UniProt Q07889).
T1 construct: HEK293 cells were engineered to express a HiBiT-tagged endogenous SOS1 protein; endogenous in cells; host or cells: HEK293 (engineered, HiBiT knock-in at the endogenous SOS1 locus)
T1 sequence (Q07889 1-1333): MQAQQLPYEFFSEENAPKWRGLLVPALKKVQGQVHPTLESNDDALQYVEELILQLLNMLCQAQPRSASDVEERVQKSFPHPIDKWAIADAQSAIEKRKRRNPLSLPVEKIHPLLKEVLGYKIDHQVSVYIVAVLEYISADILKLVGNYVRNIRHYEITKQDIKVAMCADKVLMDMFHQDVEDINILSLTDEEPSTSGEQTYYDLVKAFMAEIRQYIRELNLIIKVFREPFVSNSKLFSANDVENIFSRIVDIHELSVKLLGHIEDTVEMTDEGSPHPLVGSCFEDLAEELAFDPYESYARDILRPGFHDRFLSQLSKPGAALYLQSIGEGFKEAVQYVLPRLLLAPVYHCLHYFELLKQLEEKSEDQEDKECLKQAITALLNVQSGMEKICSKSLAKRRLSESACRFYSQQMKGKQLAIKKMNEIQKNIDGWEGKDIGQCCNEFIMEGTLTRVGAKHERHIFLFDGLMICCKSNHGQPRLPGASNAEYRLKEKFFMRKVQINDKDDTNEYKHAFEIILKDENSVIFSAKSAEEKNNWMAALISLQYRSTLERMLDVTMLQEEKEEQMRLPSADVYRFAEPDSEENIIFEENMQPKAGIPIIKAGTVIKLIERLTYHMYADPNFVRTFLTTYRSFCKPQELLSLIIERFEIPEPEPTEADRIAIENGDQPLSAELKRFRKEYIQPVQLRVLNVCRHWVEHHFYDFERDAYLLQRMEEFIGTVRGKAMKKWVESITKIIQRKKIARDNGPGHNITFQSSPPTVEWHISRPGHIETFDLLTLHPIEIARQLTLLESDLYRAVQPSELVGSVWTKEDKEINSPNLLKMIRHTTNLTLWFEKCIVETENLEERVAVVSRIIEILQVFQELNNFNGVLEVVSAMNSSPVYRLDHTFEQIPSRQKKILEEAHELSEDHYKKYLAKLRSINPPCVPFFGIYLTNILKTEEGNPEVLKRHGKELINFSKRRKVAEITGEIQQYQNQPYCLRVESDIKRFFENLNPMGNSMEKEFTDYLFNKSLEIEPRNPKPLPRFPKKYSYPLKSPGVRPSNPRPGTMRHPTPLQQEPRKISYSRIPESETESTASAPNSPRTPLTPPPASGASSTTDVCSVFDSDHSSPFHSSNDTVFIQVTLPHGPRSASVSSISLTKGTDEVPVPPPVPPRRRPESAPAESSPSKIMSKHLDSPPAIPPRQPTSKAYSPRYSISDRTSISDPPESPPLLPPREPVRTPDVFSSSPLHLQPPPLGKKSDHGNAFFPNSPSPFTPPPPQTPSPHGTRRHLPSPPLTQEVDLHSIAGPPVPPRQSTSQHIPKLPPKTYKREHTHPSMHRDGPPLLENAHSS
Put plainly: SOS1-HiBiT Degradation Assay. The class given is cell-based. As to conditions: HEK293 cells expressing HiBiT-tagged endogenous SOS1, 6 h treatment. As to the method: HEK293 cells were engineered to express a HiBiT-tagged endogenous SOS1 protein. The cells were cultured in DMEM media supplemented with 10% fetal bovine serum, streptomycin, and penicillin. The cells were seeded in a white walled 384-well plate at 12,500 cells/well in 50 μL culture media. The cells were incubated at 37° C. under 5% CO2 overnight. The cells were then treated with DMSO (control) or a compound for 6 h at 37° C. under 5% CO2. After incubation, 25 μL media was removed from each cell and 25 μL NANO-GLO® lytic detection reagent was added to each well. After a 10 min incubation with shaking, luminescence was measured using a PERKINELMER ENVISION® multimode plate reader.
In general terms: With HiBiT, luminescence reflects the tagged protein that the partner subunit can reach.
Broadly, the DC50 is the concentration giving 50% degradation. As usually defined, the Dmax is the largest share of the target that was removed. A higher Dmax goes with deep degradation. Regarding `Cc1c([C@@H](C)Nc2nnc(C)c3ccc(N4CCN(CCCCCN5CCC(c6cc7c(cc6F)C(=O)N(C6CCC(=O)NC6=O)C7)CC5)CC4)cc23)cccc1C(F)(F)F` (stereo partly drawn) [Compound A101, 3-(6-fluoro-5-(1-(5-(4-(1-methyl-4-(((R)-1-(2-methyl-3-(trifluoromethyl)phenyl)-ethyl)amino)phthalazin-6-yl)piperazin-1-yl)pentyl)piperidin-4-yl)-1-oxoisoindolin-2-yl)-piperidine-2,6-dione], the 50% degradation concentration (DC50) is no more than 0.1 µM and the Dmax is no less than 70%.

The compound `Cc1c([C@@H](C)Nc2nnc(C)c3ccc(N4CCN(CCCCCCCCCN5CCC(c6cc7c(cc6F)C(=O)N(C6CCC(=O)NC6=O)C7)CC5)CC4)cc23)cccc1C(F)(F)F` (stereo partly drawn) [Compound A103, 3-(6-Fluoro-5-(1-(9-(4-(1-methyl-4-(((R)-1-(2-methyl-3-(trifluoromethyl)phenyl)-ethyl)amino)phthalazin-6-yl)piperazin-1-yl)nonyl)piperidin-4-yl)-1-oxoisoindolin-2-yl)-piperidine-2,6-dione] registered a 50% degradation concentration (DC50) of no more than 0.1 µM and a Dmax of no less than 70%. The corresponding values for `Cc1c([C@@H](C)Nc2nnc(C)c3ccc(N4CCN(CCCCCCCCCN5CCN(C(=O)CNc6cccc7c(C8CCC(=O)NC8=O)nn(C)c67)CC5)CC4)cc23)cccc1C(F)(F)F` (stereo partly drawn) [Compound A203, 3-(1-methyl-7-((2-(4-(9-(4-(1-methyl-4-(((R)-1-(2-methyl-3-(trifluoromethyl)-phenyl)ethyl)amino)phthalazin-6-yl)piperazin-1-yl)nonyl)piperazin-1-yl)-2-oxoethyl)amino)-1H-indazol-3-yl)piperidine-2,6-dione] are no more than 0.1 µM and no less than 70%. For the compound `Cc1c([C@@H](C)Nc2nnc(C)c3ccc(N4CCN(CCCCCN5CCN(C(=O)CNc6ccc(C7CCC(=O)NC7=O)cc6)CC5)CC4)cc23)cccc1C(F)(F)F` (stereo partly drawn) [Compound A301, 3-(4-((2-(4-(5-(4-(1-Methyl-4-(((R)-1-(2-methyl-3-(trifluoromethyl)phenyl)-ethyl)amino)phthalazin-6-yl)piperazin-1-yl)pentyl)piperazin-1-yl)-2-oxoethyl)amino)phenyl)-piperidine-2,6-dione], the 50% degradation concentration (DC50) was greater than 2 µM and the Dmax was less than 30%. On to `Cc1c([C@@H](C)Nc2nnc(C)c3ccc(N4CCN(CCCCCCCCCN5CCN(C(=O)CNc6ccc(C7CCC(=O)NC7=O)cc6)CC5)CC4)cc23)cccc1C(F)(F)F` (stereo partly drawn) [Compound A303, 3-(4-((2-(4-(9-(4-(1-methyl-4-(((R)-1-(2-methyl-3-(trifluoromethyl)phenyl)-ethyl)amino)phthalazin-6-yl)piperazin-1-yl)nonyl)piperazin-1-yl)-2-oxoethyl)amino)phenyl)-piperidine-2,6-dione], for which the 50% degradation concentration (DC50) is no more than 0.1 µM and the greatest degradation seen (Dmax) is no less than 70%. Consider `COc1cc2nc(C)nc(N[C@H](C)c3cc(N)cc(C(F)(F)F)c3)c2cc1OC` [Compound C1, (R)—N-(1-(3-amino-5-(trifluoromethyl)phenyl)ethyl)-6,7-dimethoxy-2-methylquinazolin-4-amine, reference compound], for which the half-maximal degradation concentration (DC50) was greater than 10 µM.
